{
  "source": "patent EP0033503A2",
  "about": "“Medicaments with cytostatic activity and use of cyclic compounds, in which the heterocyclic N-ring atoms are substituted by several glycidyl groups, in pharmaceutical compositions” (Henkel Kommanditgesellschaft auf Aktien, priority 1980, dated 1981)",
  "tested_on": "Tumorart P 388 (Leukämie)",
  "assay": "Survival of mice bearing P 388 leukemia (NCI protocol 1200), T/C",
  "format": "in vivo, Maus",
  "conditions": "for Verlängerungsrate T/C: 9 injections; for Testergebnis in % T/C: repeat experiment; for response vs control in vivo at 50 mg/kg / response vs control in vivo at 100 mg/kg / response vs control in vivo at 200 mg/kg: Mus musculus; for response vs control in vivo at 50 mg/kg: P388, 50 mg/kg per single dose; for response vs control in vivo at 100 mg/kg: P388, 100 mg/kg per single dose; for response vs control in vivo at 200 mg/kg: P388, 200 mg/kg per single dose; for T/C-Wert: unit not given",
  "description": "Die nachfolgenden Versuche wurden durchgeführt nach Testvorschriften des National Cancer Institute Bethesda, Maryland 200014, veröffentlicht in Cancer Chemotherapy Reports\" Part. 3, September 1972, Vol. 3, Nr. 2. Als Wirksubstanz wurde 1,3-Diglycidyl-benzimidazolon des i vorstehenden Beispiels 1 verwendet. Die Substanz wurde als wäßrige, 1%ige Injektionslösung unmittelbar vor der Applikation frisch hergestellt.\nBei Mäusen wurde gemäß Protokoll 1200 (Seite 91, c.) die Tumorart P 388 (Leukämie) i.p. mit 10^6 Zellen/Maus gesetzt. Die unbehandelten Tiere hatten eine mittlere überlebensdauer von 9,9 Tagen.\nEs wird der Wirkstoff appliziert. Der Wirkstoff wird dabei in 9.Gaben in unterschiedlichen Versuchsreihen einmal zu je 200 mg/kg und in einer anderen zu 100 mg/kg und in einer dritten Versuchsreihe zu je 50 mg/kg verabreicht. In beiden Fällen wird eine signifikante Verlängerung der Lebensdauer der behandelten Testtiere gegenüber der Kontrollgruppe der nicht behandelten Tiere erzielt. […] Bei der Testgruppe mit der Dosis von 100 mg/kg beträgt die durchschnittliche Lebenserwartung der Versuchstiere 18 Tage, T/C 181 %. Die Gruppe mit der Dosis 50 mg/kg hatte eine durchschnittliche Lebenserwartung von 15,3 Tagen, T/C 154 %. […]",
  "key": {"[1]": {"conditions": "50 mg/kg per single dose, 9 doses"}, "[2]": {"conditions": "100 mg/kg per single dose, 9 doses"}, "[3]": {"conditions": "9 doses, first test series, read-out: Verlängerungsrate T/C (Testergebnis in % T/C)"}, "[4]": {"conditions": "200 mg/kg per single dose, 9 doses"}, "[5]": {"conditions": "first series, unit inferred, read-out: Testergebnis T/C (T/C-Wert)"}},
  "note": "Read-outs that look alike come from different tables or passages of the source.",
  "data": [
    {"molecule": "O=c1c2cc3c(=O)n(CC4CO4)c(=O)c3cc2c(=O)n1CC1CO1", "note": "(stereo not drawn) [Beispiel 16, N,N^I-Diglycidylbenzoltetracarbonsäure-(1,2,4,5,)diimid]", "values": [
      {"measurement": "Verlängerungsrate T/C", "setting": "6,25 mg/kg per single dose", "value": 156, "unit": "%"},
      {"measurement": "Verlängerungsrate T/C", "setting": "12,5 mg/kg per single dose", "value": 200, "unit": "%"}
    ]},
    {"molecule": "CC1(C)C(=O)N(CC2CO2)C(=O)N1CC1CO1", "note": "(stereo not drawn) [1,3-Diglycidyl-5,5-dimethylhydantoin]", "values": [
      {"measurement": "Testergebnis in % T/C", "setting": "25 mg/kg", "value": 136, "unit": "%"},
      {"measurement": "durchschnittliche Lebenserwartung der Versuchstiere", "setting": "[1]", "value": "15,7 Tage"},
      {"measurement": "Testergebnis in % T/C", "setting": "50 mg/kg", "value": 151, "unit": "%"},
      {"measurement": "durchschnittliche Lebenserwartung der Versuchstiere", "setting": "[2]", "value": 22, "unit": "Tage"},
      {"measurement": "Testergebnis in % T/C", "setting": "100 mg/kg", "value": 239, "unit": "%"},
      {"measurement": "response vs control in vivo at 50 mg/kg", "setting": "[3]", "value": 158, "unit": "%"},
      {"measurement": "response vs control in vivo at 100 mg/kg", "setting": "[3]", "value": 222, "unit": "%"},
      {"measurement": "erhöhte Lebenserwartung gegenüber einer Kontrollgruppe nicht behandelter Versuchstiere", "setting": "animal test at 100 mg/kg and 50 mg/kg", "value": "≤ 220", "unit": "%"}
    ]},
    {"molecule": "O=c1n(CC2CO2)c2ccccc2n1CC1CO1", "note": "(stereo not drawn) [Beispiel 1, N,N'-Digylcidyl-Benzimidazolon]", "values": [
      {"measurement": "Testergebnis in % T/C", "setting": "25 mg/kg", "value": 133, "unit": "%"},
      {"measurement": "durchschnittliche Lebenserwartung der Versuchstiere", "setting": "[1]", "value": "15,3 Tage"},
      {"measurement": "Testergebnis in % T/C", "setting": "50 mg/kg", "value": 136, "unit": "%"},
      {"measurement": "durchschnittliche Lebenserwartung der Versuchstiere", "setting": "[2]", "value": 18, "unit": "Tage"},
      {"measurement": "Testergebnis in % T/C", "setting": "100 mg/kg", "value": 161, "unit": "%"},
      {"measurement": "durchschnittliche Lebensdauer der Testgruppe", "setting": "[4]", "value": 20, "unit": "Tage"},
      {"measurement": "Testergebnis in % T/C", "setting": "200 mg/kg", "value": 166, "unit": "%"},
      {"measurement": "response vs control in vivo at 50 mg/kg", "setting": "[3]", "value": 154, "unit": "%"},
      {"measurement": "response vs control in vivo at 100 mg/kg", "setting": "[3]", "value": 181, "unit": "%"},
      {"measurement": "response vs control in vivo at 200 mg/kg", "setting": "[3]", "value": 202, "unit": "%"}
    ]},
    {"molecule": "Diglycidyl-butylglykoluril [Beispiel 4]", "values": [
      {"measurement": "durchschnittliche Lebenserwartung der Versuchstiere", "setting": "[1]", "value": "16,3 Tage"},
      {"measurement": "Verlängerungsrate T/C (Testergebnis in % T/C)", "setting": "50 mg/kg per single dose, 9 doses, first test series", "value": 164, "unit": "%"},
      {"measurement": "durchschnittliche Lebenserwartung der Versuchstiere", "setting": "[2]", "value": "19,3 Tage"},
      {"measurement": "Verlängerungsrate T/C (Testergebnis in % T/C)", "setting": "100 mg/kg per single dose, 9 doses, first test series", "value": 194, "unit": "%"},
      {"measurement": "durchschnittliche Lebensdauer der Testgruppe", "setting": "[4]", "value": 27, "unit": "Tage"},
      {"measurement": "Verlängerungsrate T/C (Testergebnis in % T/C)", "setting": "200 mg/kg per single dose, 9 doses, first test series", "value": 272, "unit": "%"},
      {"measurement": "Versuchstiere, die die Testdauer von 30 Tagen überleben", "setting": "200 mg/kg per single dose, test group of 6 female mice", "value": "ein Versuchstier"}
    ]},
    {"molecule": "CCCCCC(=O)c1ccc2c(c1)n(CC1CO1)c(=O)n2CC1CO1", "note": "(stereo not drawn) [R2 -H R3 -C-C5H11 \" O, N,N-Diglycidyl-5-caproyl-benzimidazolon]", "values": [
      {"measurement": "response vs control in vivo at 50 mg/kg", "setting": "[3]", "value": 167, "unit": "%"},
      {"measurement": "response vs control in vivo at 100 mg/kg", "setting": "[3]", "value": 198, "unit": "%"},
      {"measurement": "response vs control in vivo at 200 mg/kg", "setting": "[3]", "value": 130, "unit": "%"}
    ]},
    {"molecule": "CCC1(c2ccccc2)C(=O)N(CC2CO2)C(=O)N1CC1CO1", "note": "(stereo not drawn) [R5 CH3-CH2-R6 C6H5-, Diglycidyl-5-phenyl-5-ethylhydantoin]", "values": [
      {"measurement": "Testergebnis in % T/C", "setting": "50 mg/kg", "value": 111, "unit": "%"},
      {"measurement": "Testergebnis in % T/C", "setting": "100 mg/kg", "value": 146, "unit": "%"},
      {"measurement": "Testergebnis in % T/C", "setting": "200 mg/kg", "value": 188, "unit": "%"},
      {"measurement": "response vs control in vivo at 50 mg/kg", "setting": "[3]", "value": 125, "unit": "%"},
      {"measurement": "response vs control in vivo at 100 mg/kg", "setting": "[3]", "value": 156, "unit": "%"},
      {"measurement": "response vs control in vivo at 200 mg/kg", "setting": "[3]", "value": 222, "unit": "%"}
    ]},
    {"molecule": "O=c1n(CC2CO2)c(=O)n(CC2CO2)n1CC1CO1", "note": "(stereo not drawn) [Beispiel 26, 1,2,4-Triglycidylurazol]", "values": [
      {"measurement": "T/C-Wert", "setting": "25 mg/kg per single dose", "value": ">260"},
      {"measurement": "T/C-Wert", "setting": "6,25 mg/kg per single dose", "value": 180},
      {"measurement": "T/C-Wert", "setting": "12,5 mg/kg per single dose", "value": 230},
      {"measurement": "response vs control in vivo at 50 mg/kg", "setting": "[5]", "value": 298, "unit": "%"}
    ]},
    {"molecule": "CC1(c2ccccc2)C(=O)N(CC2CO2)C(=O)N1CC1CO1", "note": "(stereo not drawn) [R5 CH3-R6 C6H5-, Diglycidyl-5-phenyl-5-methyl-hydantoin]", "values": [
      {"measurement": "response vs control in vivo at 50 mg/kg", "setting": "[3]", "value": 100, "unit": "%"},
      {"measurement": "response vs control in vivo at 100 mg/kg", "setting": "[3]", "value": 160, "unit": "%"},
      {"measurement": "response vs control in vivo at 200 mg/kg", "setting": "[3]", "value": 250, "unit": "%"}
    ]},
    {"molecule": "COc1ccc2c(c1)n(CC1CO1)c(=O)n2CC1CO1", "note": "(stereo not drawn) [R2 -H R3 -O-CH3, N,N-Diglycidyl-5-methoxy-benzimidazolon]", "values": [
      {"measurement": "response vs control in vivo at 50 mg/kg", "setting": "[3]", "value": 175, "unit": "%"},
      {"measurement": "response vs control in vivo at 100 mg/kg", "setting": "[3]", "value": 225, "unit": "%"}
    ]},
    {"molecule": "O=c1n(-c2ccccc2)c(=O)n(CC2CO2)n1CC1CO1", "note": "(stereo not drawn) [Beispiel 27, 1,2-Diglycidyl-4-phenylurazol]", "values": [
      {"measurement": "T/C-Wert", "setting": "25 mg/kg per single dose", "value": 120},
      {"measurement": "response vs control in vivo at 50 mg/kg", "setting": "[5]", "value": 120, "unit": "%"},
      {"measurement": "response vs control in vivo at 100 mg/kg", "setting": "[5]", "value": 150, "unit": "%"},
      {"measurement": "response vs control in vivo at 200 mg/kg", "setting": "[5]", "value": 200, "unit": "%"}
    ]},
    {"molecule": "O=c1c(F)cn(CC2CO2)c(=O)n1CC1CO1", "note": "(stereo not drawn) [Diglycidyl-5-floururacil, N,N'-Diglycidyl-5-fluoruracil]", "values": [
      {"measurement": "response vs control in vivo at 50 mg/kg", "setting": "[5]", "value": 179, "unit": "%"},
      {"measurement": "response vs control in vivo at 100 mg/kg", "setting": "[5]", "value": 300, "unit": "%"}
    ]}
  ]
}
